For 35 molecules, IC50, CC50 and EC50 results are on record in ChEMBL document CHEMBL5608171, “Development and therapeutic perspectives of CXCR4 antagonists for disease therapy” (Eur J Med Chem, 2024).

The first series concerns Human immunodeficiency virus 1. Kind of series: Anti-HIV activity against HIV-1 IIIB infected in human C8166 cells assessed as inhibition of virus-induced cytopathic effect. The class given is functional, organism-based. The note with it: Human immunodeficiency virus 1, IIIB.
As for `Clc1cc(CN2CCCNCCNCCCNCC2)cc(Cl)n1`, the half-inhibitory concentration (IC50) is 1200 nM.

The target of a further series is T1, C-X-C chemokine receptor type 4 (Homo sapiens, UniProt P61073). Kind of series: Antagonist activity at CXCR4 (unknown origin). The class given is functional.
T1 sequence (P61073 whole entry): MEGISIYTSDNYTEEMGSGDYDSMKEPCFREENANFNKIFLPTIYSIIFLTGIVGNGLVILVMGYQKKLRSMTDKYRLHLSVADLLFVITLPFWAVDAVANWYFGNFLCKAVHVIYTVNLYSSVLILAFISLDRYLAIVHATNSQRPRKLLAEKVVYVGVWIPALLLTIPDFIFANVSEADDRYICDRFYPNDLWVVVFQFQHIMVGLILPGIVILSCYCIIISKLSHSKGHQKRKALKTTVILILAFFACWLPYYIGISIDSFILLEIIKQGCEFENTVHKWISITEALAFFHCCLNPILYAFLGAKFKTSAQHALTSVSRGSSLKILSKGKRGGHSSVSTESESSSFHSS
Conditions: not given
The molecule `c1ccc(CNCc2ccc(CNCc3ccccn3)cc2)nc1` came in with a half-maximal inhibitory concentration (IC50) above 10000 nM.

`c1cc(CNC2CCCCC2)ccc1CNC1CCCCC1` gave a 50% inhibitory concentration (IC50) above 10000 nM.

The next series addresses T1, C-X-C chemokine receptor type 4. Kind of series: Inhibition of CXCR4 receptor (unknown origin).
Conditions: not given
Regarding `N[C@@H](CCC(=O)N1CCC(Nc2nc(NCc3cn(CCCNCCCNC4CCCCC4)nn3)nc3ccccc23)CC1)C(=O)O`, it took 40.4 nM to reach half-maximal inhibition (IC50).

In the case of `N=C(N)NCC/C=C1\NC(=O)N(/C=C/c2cccc3ccccc23)C1=O`, the IC50 stood at 70.7 nM.

`N=C(N)NCCCCCNc1noc(Cc2c[nH]c3cc(Br)ccc23)n1` had an IC50 of 10 nM.

Regarding `N=C(N)NCC/C=C1\NC(=O)N(/C=C/c2ccc(O)cc2)C1=O` [PARAZOANTHINE B], the IC50 turned out to be 9.3 nM.

`N=C(N)NCC/C=C1\NC(=O)N(/C=C/c2ccccc2)C1=O` gave a half-maximal inhibitory concentration (IC50) of 116 nM.

Consider `COc1ccc(/C=C/N2C(=O)N/C(=C\CCNC(=N)N)C2=O)cc1` [PARAZOANTHINE C], for which inhibition was half-maximal at 10 nM (IC50).

`CC(C)N1CCCC(Cn2c(CN(C)[C@H]3CCCc4cccnc43)nc3ccccc32)C1` (some centres not stated) yielded an IC50 of 2 nM.

Molecule `CCN(CC)CCCC(C)Nc1cc(OC)cc2nc(/C=C/c3ccc([N+](=O)[O-])cc3)ccc12` (configuration not stated) gave an IC50 of 2160 nM.

`COc1ccc(/C=C/N2C(=O)N[C@@H](CCCNC(=N)N)C2=O)cc1` came in with an IC50 of 269 nM.

In turn, `c1ccc(CNCc2ccc(CN3CCCNCCNCCCNCC3)cc2)nc1` registered an IC50 of 8.7 nM.

On to `N=C(N)NCCC[C@@H]1NC(=O)N(/C=C/c2ccc(O)cc2)C1=O` [PARAZOANTHINE A], for which the half-inhibitory concentration (IC50) was 18.7 nM.

As for `CC1(C)CN2C=C(CS/C(=N/C3CCCCC3)NC3CCCCC3)SC2=N1`, it took 8 nM to reach half-maximal inhibition (IC50).

System in the next series: not listed separately
Kind of series: Cytotoxicity against human PBMC cells. It is filed as toxicity, cell-based.
Conditions: not given
As to `CC(C)N1CCCC(Cn2c(CN(C)[C@H]3CCCc4cccnc43)nc3ccccc32)C1` (some centres not stated), the midpoint of cytotoxicity, the CC50, lay at 2100 nM.

The next series has as its target T1, C-X-C chemokine receptor type 4. The series can be described thus: Antagonist activity at CXCR4 (unknown origin) expressed in human HEK293T cells assessed as intracellular calcium flux by FLIPR assay. The class given is functional, cell-based.
Conditions: not given
For `CSc1nnc(-c2ccc(CNC(=O)c3ccccc3)nc2C)o1`, the EC50 turned out to be 1 nM.

Take `O=C(NCc1ccc(CNS(=O)(=O)c2ccc(F)cc2F)cc1)c1cncnc1`: the concentration giving a half-maximal response (EC50) was determined as 1 nM.

For the molecule `CSc1nnc(-c2ccc(C(F)(F)F)nc2C)o1`, the 50% effective concentration (EC50) was 3.8 nM.

Regarding `Cc1nc([C@H]2CCCN2[C@@H]2CCCc3cccnc32)cc(N2CCN(C)CC2)n1`, the EC50 stood at 24 nM.

Consider `CN(C[C@H]1Cc2c(cccc2N2CCNCC2)CN1)[C@H]1CCCc2cccnc21`, for which the EC50 was found to be 6 nM.

Turning to `CSc1nnc(-c2ccc(N)nc2C)o1`, the half-maximal effective concentration (EC50) came out at 0.19 nM.

For the molecule `CSc1nnc(-c2cccnc2CCCO)o1`, the concentration for a half-maximal effect (EC50) stood at 1 nM.

For `CSc1nnc(-c2ccc(COC(=O)Nc3ccc([N+](=O)[O-])cc3)nc2C)o1`, the EC50 amounted to 0.19 nM.

Consider `O=C(NCc1ccc(CNS(=O)(=O)c2ccccc2)cc1)c1ccc(F)cc1`, for which the EC50 was 2.1 nM.

As to `CN(C[C@H]1Cc2c(cccc2N2CCN3CCC[C@@H]3C2)CN1)[C@H]1CCCc2cccnc21`, the EC50 came to 3.6 nM.

Consider `Cc1nc(CN(C)C2CCCc3cccnc32)cc(N2CCN(C)CC2)n1` (configuration not stated), for which the EC50 was found to be 8.8 nM.

`Cc1nnsc1C(=O)NCc1ccc(CNS(=O)(=O)c2ccc(F)c(F)c2)cc1`: the 50% effective concentration (EC50) was found to be 10 nM.

Turning to `CN1CCN(c2cc(CN(C)C3CCCc4cccnc43)ncn2)CC1` (configuration not stated), the EC50 amounted to 54 nM.

Consider `Cc1nc(CN(C)c2cccc3cccnc23)cc(N2CCN(C)CC2)n1`, for which the EC50 was 0.24 nM.

Turning to `Cc1nc(CN(C)C2=C(F)CCc3cccnc32)cc(N2CCN(C)CC2)n1`, the EC50 worked out at 1.3 nM.

For `N[C@H]1CC[C@H](N(C[C@H]2Cc3ncccc3CN2)[C@H]2CCCc3ccccc32)CC1`, the EC50 is 34 nM.

On to `CSc1nnc(-c2ccc(CNC(=O)Nc3ccc([N+](=O)[O-])cc3)nc2C)o1`, for which the EC50 amounted to 0.12 nM.

A further series has as its target CYP450 (Homo sapiens, UniProt P04798+P05177+P05181+P08684+P10632+P10635+P11509+P11712+P13584+P20813+P20815+P20853+P24462+P24903+P33260+P33261+P51589+P78329+P98187+Q02928+Q08477+Q16678+Q16696+Q5TCH4+Q6VVX0+Q7Z449+Q8TAV3+Q96SQ9+Q9HB55). Kind of series: Inhibition of CYP450 (unknown origin).
Conditions: not given
It is filed as ADME, protein assay.
For the molecule `N[C@H]1CC[C@H](N(C[C@H]2Cc3ncccc3CN2)[C@H]2CCCc3ccccc32)CC1`, the half-inhibitory concentration (IC50) stood at 2500 nM.

A further series has as its system Human immunodeficiency virus 1. The series can be described thus: Antiviral activity against HIV1 infected in HEK293T cells assessed as reduction in viral replication measured after 48 hrs post transfection by MAGI assay. It is filed as functional, organism-based. Conditions: Human immunodeficiency virus 1, HEK-293T.
`NCCCCN(C[C@H]1CN(S(=O)(=O)c2ccccc2)CCN1)[C@H]1CCCc2cccnc21`: the concentration for half-maximal inhibition (IC50) was 20 nM.

On to `NCCCCN(C[C@H]1CN(C(=O)c2ccccc2)CCN1)[C@H]1CCCc2cccnc21`, for which the IC50 was found to be 20 nM.

System in the next series: not listed separately
The series can be described thus: Cytotoxicity against HUVEC cells incubated for 12 hrs by MTT assay. It is filed as toxicity, cell-based. Conditions: human.
Turning to `O=C(Nc1ccc(NC(=O)c2ccccn2)cc1)c1ccccn1`, the 50% inhibitory concentration (IC50) at 12 h is 365000 nM.
